Usually AC50 stands for the midpoint of the concentration-response curve, whichever way the signal moves. A low value points to greater potency.

Assay [1] has as its target T1, Alpha-2B adrenergic receptor (Homo sapiens, UniProt P18089).
T1 sequence (P18089 whole entry): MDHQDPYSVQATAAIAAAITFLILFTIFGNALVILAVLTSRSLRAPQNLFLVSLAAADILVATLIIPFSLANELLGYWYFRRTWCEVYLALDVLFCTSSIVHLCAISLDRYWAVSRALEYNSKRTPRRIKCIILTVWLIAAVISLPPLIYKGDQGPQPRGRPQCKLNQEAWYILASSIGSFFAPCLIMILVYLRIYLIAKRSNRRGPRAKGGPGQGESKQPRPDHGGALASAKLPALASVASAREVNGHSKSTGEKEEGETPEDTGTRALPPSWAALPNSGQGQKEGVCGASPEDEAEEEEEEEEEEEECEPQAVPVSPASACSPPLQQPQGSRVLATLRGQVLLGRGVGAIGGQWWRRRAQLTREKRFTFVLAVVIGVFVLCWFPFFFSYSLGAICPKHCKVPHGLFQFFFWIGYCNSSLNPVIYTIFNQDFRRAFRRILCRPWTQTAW

For another assay, the target named is T2, B2 bradykinin receptor (Homo sapiens, UniProt P30411).
T2 sequence (P30411 whole entry): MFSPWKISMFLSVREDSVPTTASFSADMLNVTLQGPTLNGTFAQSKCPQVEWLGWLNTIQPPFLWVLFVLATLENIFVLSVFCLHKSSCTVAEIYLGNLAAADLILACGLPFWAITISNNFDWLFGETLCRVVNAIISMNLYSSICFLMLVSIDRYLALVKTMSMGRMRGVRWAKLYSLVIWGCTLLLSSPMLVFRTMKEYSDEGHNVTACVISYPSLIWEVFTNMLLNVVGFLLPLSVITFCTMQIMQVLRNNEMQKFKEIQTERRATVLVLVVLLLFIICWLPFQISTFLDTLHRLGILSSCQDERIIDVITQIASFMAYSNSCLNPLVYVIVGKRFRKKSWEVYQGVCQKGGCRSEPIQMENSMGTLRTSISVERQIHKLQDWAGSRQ

Assay [2] deals with Growth hormone secretagogue receptor type 1 (Homo sapiens, UniProt Q92847).
Growth hormone secretagogue receptor type 1, sequence (Q92847 whole entry): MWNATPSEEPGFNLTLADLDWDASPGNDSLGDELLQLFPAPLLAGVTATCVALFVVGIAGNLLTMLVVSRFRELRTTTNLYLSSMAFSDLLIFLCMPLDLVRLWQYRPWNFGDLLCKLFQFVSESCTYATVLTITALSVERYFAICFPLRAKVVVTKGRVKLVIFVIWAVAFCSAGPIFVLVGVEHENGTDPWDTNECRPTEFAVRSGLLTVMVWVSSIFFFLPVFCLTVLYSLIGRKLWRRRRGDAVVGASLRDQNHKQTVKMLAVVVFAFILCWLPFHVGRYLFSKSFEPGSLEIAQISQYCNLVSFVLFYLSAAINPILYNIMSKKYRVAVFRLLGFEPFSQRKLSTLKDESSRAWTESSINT
Assay [3] has as its target Beta-1 adrenergic receptor (Homo sapiens, UniProt P08588). The format is functional.
For assay [4], the target named is Sodium-dependent dopamine transporter (Homo sapiens, UniProt Q01959).
Sodium-dependent dopamine transporter, sequence (Q01959 whole entry): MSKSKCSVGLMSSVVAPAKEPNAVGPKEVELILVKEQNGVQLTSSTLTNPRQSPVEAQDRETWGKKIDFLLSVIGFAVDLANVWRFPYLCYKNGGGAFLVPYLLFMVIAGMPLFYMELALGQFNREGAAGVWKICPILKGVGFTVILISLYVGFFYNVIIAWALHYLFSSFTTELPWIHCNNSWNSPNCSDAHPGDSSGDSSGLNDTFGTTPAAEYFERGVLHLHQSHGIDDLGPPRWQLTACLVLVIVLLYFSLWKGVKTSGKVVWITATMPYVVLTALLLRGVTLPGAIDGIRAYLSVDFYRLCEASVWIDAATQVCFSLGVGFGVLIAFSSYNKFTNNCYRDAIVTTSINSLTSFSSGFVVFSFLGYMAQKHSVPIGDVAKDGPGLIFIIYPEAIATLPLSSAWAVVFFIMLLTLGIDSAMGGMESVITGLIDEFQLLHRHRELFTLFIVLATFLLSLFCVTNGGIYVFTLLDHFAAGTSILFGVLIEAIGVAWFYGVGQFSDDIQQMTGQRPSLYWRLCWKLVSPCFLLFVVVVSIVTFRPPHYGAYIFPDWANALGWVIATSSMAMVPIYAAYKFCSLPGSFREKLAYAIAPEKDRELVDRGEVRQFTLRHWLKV
The target in assay [5] is T3, 5-hydroxytryptamine receptor 2B (Homo sapiens, UniProt P41595). The format is functional, cell-based.
T3 sequence (P41595 whole entry): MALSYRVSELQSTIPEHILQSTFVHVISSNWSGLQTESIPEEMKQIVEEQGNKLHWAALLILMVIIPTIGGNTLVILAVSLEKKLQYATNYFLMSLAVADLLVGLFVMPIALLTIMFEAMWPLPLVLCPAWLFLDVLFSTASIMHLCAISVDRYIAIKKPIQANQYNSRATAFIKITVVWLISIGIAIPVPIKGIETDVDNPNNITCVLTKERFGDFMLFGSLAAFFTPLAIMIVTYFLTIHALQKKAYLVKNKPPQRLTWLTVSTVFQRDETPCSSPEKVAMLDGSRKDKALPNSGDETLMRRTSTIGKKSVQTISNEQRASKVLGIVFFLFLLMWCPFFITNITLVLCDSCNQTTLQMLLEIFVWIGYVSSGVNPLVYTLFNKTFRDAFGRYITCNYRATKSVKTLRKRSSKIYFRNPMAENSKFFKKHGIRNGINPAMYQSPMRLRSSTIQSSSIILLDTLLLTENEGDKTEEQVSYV
The target of assay [6] is T4, 5-hydroxytryptamine receptor 2C (Homo sapiens, UniProt P28335).
T4 sequence (P28335 whole entry): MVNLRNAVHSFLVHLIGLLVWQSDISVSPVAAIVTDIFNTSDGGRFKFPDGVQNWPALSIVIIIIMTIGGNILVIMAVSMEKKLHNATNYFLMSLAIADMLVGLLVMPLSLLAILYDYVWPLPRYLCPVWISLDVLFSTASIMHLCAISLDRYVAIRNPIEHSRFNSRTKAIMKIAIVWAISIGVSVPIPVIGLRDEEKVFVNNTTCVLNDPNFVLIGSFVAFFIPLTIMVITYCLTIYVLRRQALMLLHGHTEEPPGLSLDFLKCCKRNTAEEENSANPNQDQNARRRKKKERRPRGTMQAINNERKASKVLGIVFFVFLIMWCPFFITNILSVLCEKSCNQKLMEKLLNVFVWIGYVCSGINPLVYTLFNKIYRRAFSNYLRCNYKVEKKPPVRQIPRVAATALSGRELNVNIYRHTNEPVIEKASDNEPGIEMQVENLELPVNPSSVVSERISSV

The target in a further assay is Vasopressin V1a receptor (Homo sapiens, UniProt P37288).
Vasopressin V1a receptor, sequence (P37288 whole entry): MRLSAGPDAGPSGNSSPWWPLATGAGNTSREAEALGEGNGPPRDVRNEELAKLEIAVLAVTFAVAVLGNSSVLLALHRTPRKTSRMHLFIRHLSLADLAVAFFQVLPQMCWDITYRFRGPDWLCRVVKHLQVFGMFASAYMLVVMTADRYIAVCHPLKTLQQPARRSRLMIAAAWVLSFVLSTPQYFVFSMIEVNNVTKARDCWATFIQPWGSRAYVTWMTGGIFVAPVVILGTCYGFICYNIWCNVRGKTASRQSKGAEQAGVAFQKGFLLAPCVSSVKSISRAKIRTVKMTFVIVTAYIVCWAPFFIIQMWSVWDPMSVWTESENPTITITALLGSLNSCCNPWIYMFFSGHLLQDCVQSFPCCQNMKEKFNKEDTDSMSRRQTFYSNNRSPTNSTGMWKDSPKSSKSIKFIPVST
Assay [7] has as its target Gamma-aminobutyric acid receptor subunit alpha-1 (Rattus norvegicus, UniProt P62813).
Assay [8] deals with T3, 5-hydroxytryptamine receptor 2B. The format is functional, cell-based. The source holds these as a separate data set.
The next assay concerns the target T5, Adenosine receptor A3 (Homo sapiens, UniProt P0DMS8).
T5 sequence (P0DMS8 whole entry): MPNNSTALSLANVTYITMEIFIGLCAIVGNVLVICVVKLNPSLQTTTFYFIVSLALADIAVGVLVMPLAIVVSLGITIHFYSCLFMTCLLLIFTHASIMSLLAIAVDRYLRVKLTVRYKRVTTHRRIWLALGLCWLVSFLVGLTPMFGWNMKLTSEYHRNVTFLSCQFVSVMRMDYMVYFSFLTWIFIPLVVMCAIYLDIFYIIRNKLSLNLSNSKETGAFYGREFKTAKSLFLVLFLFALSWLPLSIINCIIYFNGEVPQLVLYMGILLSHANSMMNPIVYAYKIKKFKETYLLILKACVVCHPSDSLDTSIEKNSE

The target in assay [9] is T6, Cannabinoid receptor 1 (Homo sapiens, UniProt P21554). The format is functional, cell-based.
T6 sequence (P21554 whole entry): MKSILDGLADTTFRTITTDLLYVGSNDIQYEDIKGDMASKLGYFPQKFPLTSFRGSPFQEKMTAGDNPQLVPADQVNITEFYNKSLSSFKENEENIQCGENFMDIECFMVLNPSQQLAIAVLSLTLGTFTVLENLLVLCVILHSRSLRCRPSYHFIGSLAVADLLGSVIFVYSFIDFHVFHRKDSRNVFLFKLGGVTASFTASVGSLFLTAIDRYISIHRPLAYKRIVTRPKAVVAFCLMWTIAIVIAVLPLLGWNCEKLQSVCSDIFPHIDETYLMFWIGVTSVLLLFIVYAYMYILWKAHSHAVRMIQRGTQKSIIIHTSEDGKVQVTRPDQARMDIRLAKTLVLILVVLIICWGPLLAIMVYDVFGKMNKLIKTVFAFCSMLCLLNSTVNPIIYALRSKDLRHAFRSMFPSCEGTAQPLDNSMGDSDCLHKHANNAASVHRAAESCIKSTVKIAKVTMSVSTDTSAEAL
The target in assay [10] is T6, Cannabinoid receptor 1. It is filed as functional, cell-based. The source holds these as a separate data set.
Also: assay procedure not described here.

Beta-1 adrenergic receptor, sequence (P08588 whole entry): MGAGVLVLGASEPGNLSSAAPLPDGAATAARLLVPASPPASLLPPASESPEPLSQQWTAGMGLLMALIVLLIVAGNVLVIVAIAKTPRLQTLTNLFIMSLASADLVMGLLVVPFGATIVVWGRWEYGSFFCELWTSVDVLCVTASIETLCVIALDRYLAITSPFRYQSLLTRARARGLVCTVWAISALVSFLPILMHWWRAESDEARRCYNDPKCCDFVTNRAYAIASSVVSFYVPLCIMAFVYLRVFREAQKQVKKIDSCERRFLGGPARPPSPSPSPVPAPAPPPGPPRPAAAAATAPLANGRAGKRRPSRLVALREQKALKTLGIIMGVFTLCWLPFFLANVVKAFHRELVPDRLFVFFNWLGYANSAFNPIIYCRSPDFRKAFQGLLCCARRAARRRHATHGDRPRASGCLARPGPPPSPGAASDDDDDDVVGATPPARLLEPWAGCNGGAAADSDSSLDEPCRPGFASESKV
Gamma-aminobutyric acid receptor subunit alpha-1, sequence (P62813 whole entry): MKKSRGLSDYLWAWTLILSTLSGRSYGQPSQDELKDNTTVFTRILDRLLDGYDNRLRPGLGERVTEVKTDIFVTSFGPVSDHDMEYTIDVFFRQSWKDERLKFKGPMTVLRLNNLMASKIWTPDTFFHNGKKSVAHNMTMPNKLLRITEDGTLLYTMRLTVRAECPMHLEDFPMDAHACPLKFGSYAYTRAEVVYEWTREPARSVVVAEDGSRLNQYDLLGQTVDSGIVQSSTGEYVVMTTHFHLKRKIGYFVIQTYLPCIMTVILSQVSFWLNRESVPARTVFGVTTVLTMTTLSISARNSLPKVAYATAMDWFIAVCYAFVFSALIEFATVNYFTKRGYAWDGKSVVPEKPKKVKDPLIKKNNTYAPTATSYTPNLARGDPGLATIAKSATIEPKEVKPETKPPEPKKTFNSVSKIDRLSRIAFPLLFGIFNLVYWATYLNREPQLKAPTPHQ

For the molecule `C[N+]1(C)CCC(=C(c2ccccc2)c2ccccc2)CC1`, the AC50 in assay [1] was above 10 µM; on B2 bradykinin receptor, above 30 µM; in assay [2] it was above 30 µM; in assay [3] it was above 10 µM; in assay [4], above 10 µM; in assay [5] it was 29 µM. Also, the AC50 in assay [6] is above 30 µM; at Vasopressin V1a receptor, above 30 µM; in [7], above 10 µM; in assay [8], above 10 µM.

On to `CN(C)Cc1nnc2n1-c1ccc(Cl)cc1C(c1ccccc1)=NC2` [ADINAZOLAM], for which the AC50 (in [1]; on B2 bradykinin receptor; in assay [2]; in assay [3]; in [4]; in [5]) was above 10 µM throughout. The AC50 in assay [6] is above 30 µM; at Vasopressin V1a receptor, above 10 µM; in assay [7] it was above 10 µM; in [8] it was above 10 µM.

For the molecule `Cc1ccccc1-n1c(CF)nc2ccc(N)cc2c1=O` [AFLOQUALONE], the AC50 in [1] is above 10 µM; on B2 bradykinin receptor, above 30 µM; in [2], above 30 µM; in assay [3], above 30 µM; in assay [4] it was above 30 µM; in assay [5], above 10 µM. Also, the AC50 in [6] is above 30 µM; on Vasopressin V1a receptor, above 30 µM; in assay [7], above 10 µM; in assay [8], above 10 µM.

On to `O=C(/C=C/c1cccc(S(=O)(=O)Nc2ccccc2)c1)NO` [BELINOSTAT], for which the AC50 in assay [1] was above 10 µM; at B2 bradykinin receptor it was above 30 µM; in [2], above 30 µM; in [3], above 10 µM; in [4] it was above 10 µM; in assay [6] it was above 30 µM. In addition, the AC50 (on Vasopressin V1a receptor; in [7]) was above 10 µM in each case.

Turning to `C[C@H](CCC(=O)O)[C@H]1CC[C@H]2[C@@H]3[C@H](O)C[C@@H]4C[C@H](O)CC[C@]4(C)[C@H]3C[C@H](O)[C@]12C` [CHOLIC ACID], the AC50 on Adenosine receptor A3 was above 30 µM.

As for `C/C=C(/C(=C/C)c1ccc(O)cc1)c1ccc(O)cc1` [DIENESTROL], the AC50 is above 10 µM in assay [1]; above 10 µM on B2 bradykinin receptor; above 10 µM in assay [2]; above 10 µM in [3]; above 30 µM in assay [4]; above 10 µM in [5]. Also, the AC50 in assay [6] is above 30 µM; on Vasopressin V1a receptor, above 10 µM; in assay [7] it was above 10 µM; in assay [8], above 10 µM.

In turn, `CC(O)(P(=O)(O)O)P(=O)(O)O` [ETIDRONIC ACID] returned an AC50 at Adenosine receptor A3 above 30 µM.

On to `COc1ccc([C@@H]2CC(=O)c3c(O)cc(O)cc3O2)cc1O` [HESPERETIN], for which the AC50 (in assay [1]; on B2 bradykinin receptor; in [2]; in assay [3]; in [4]; in assay [5]) was above 10 µM throughout. Moreover, the half-maximal activity concentration (AC50) in assay [6] is above 30 µM; on Vasopressin V1a receptor, above 10 µM; in [7], above 10 µM; in assay [8], above 10 µM.

For the molecule `CN(C)CCCN1c2ccccc2CCc2ccccc21` [IMIPRAMINE], the half-maximal activity concentration (AC50) in assay [1] was 0.32 µM; on B2 bradykinin receptor it was above 30 µM; on Cannabinoid receptor 1 [9], above 30 µM; in assay [2] it was above 30 µM; on Cannabinoid receptor 1 [10] it was above 30 µM; in assay [3] it was above 10 µM. The AC50 in [5] was 5 µM; in [6] it was 0.13 µM; on Vasopressin V1a receptor, above 10 µM; in assay [7], above 10 µM; in assay [8], above 10 µM.

As to `C=C1c2cccc(O)c2C(=O)C2=C(O)[C@]3(O)C(=O)C(C(N)=O)=C(O)[C@@H](N(C)C)[C@@H]3[C@@H](O)[C@H]12` [METHACYCLINE], the AC50 in [1] was above 10 µM; at B2 bradykinin receptor, above 30 µM; in assay [2], above 30 µM; in [3], above 10 µM; in [4], above 10 µM; in assay [5], above 10 µM. Moreover, the concentration at half-maximal activity (AC50) was above 30 µM in assay [6], above 30 µM at Vasopressin V1a receptor, above 10 µM in assay [7] and above 10 µM in assay [8].

For `O=C1c2cccc3c2[C@H](CCC3)CN1[C@@H]1CN2CCC1CC2` [PALONOSETRON], the half-maximal activity concentration (AC50) (in assay [1]; at B2 bradykinin receptor; in [2]; in assay [3]; in assay [4]; in assay [5]) was above 30 µM in each case. In addition, the half-maximal activity concentration (AC50) (in assay [6]; on Vasopressin V1a receptor; in [7]; in assay [8]) was above 30 µM in each case.

The molecule `NNCCc1ccccc1` [PHENELZINE] yielded an AC50 at Adenosine receptor A3 above 30 µM.

Turning to `CN[C@@H](C)[C@@H](O)c1ccccc1` [PSEUDOEPHEDRINE], the concentration at half-maximal activity (AC50) in assay [1] is above 10 µM; at B2 bradykinin receptor it was above 30 µM; in assay [2], above 30 µM; in assay [3] it was above 10 µM; in [4], above 10 µM; in [5] it was above 10 µM. For the same molecule, the AC50 was above 30 µM in assay [6], above 10 µM on Vasopressin V1a receptor, above 10 µM in assay [7] and above 10 µM in [8].

For `CCCN1CC(NS(=O)(=O)N(CC)CC)CC2Cc3c(O)cccc3CC21` (configuration not stated) [QUINAGOLIDE], the AC50 is 11 µM in [1]; above 30 µM at B2 bradykinin receptor; above 30 µM at Cannabinoid receptor 1 [9]; above 30 µM in [2]; above 30 µM on Cannabinoid receptor 1 [10]; above 30 µM in assay [3]. The AC50 is above 30 µM in assay [4]; above 30 µM in assay [6]; above 30 µM on Vasopressin V1a receptor; above 30 µM in assay [7]; 3.67 µM in assay [8].

Regarding `COC(=O)[C@H]1[C@H]2C[C@@H]3c4[nH]c5cc(OC)ccc5c4CCN3C[C@H]2C[C@@H](OC(=O)c2cc(OC)c(OC)c(OC)c2)[C@@H]1OC` [RESERPINE], the AC50 is above 10 µM on B2 bradykinin receptor; above 10 µM in assay [2]; above 10 µM in assay [3]; 13 µM in assay [4]; above 10 µM in assay [5]; above 30 µM in assay [6]. The concentration at half-maximal activity (AC50) is above 10 µM at Vasopressin V1a receptor, above 10 µM in assay [7], 17.7 µM on Adenosine receptor A3 and above 10 µM in assay [8].

Consider `O=S1(=O)CCN(CN2CCS(=O)(=O)NC2)CN1` [TAUROLIDINE], for which the AC50 is 20 µM in assay [1]; above 30 µM at Cannabinoid receptor 1 [9]; above 30 µM at Cannabinoid receptor 1 [10]; above 30 µM in [3]; above 30 µM in assay [4]; above 30 µM in [6]. Moreover, the AC50 in assay [7] and in assay [8] was above 30 µM each time.

For the molecule `Cc1ccc(C(=O)C(C)CN2CCCCC2)cc1` (configuration not stated) [TOLPERISONE], the AC50 at Adenosine receptor A3 was above 30 µM.

Source of the values: ChEMBL document CHEMBL5291721, “A preclinical secondary pharmacology resource illuminates target-adverse drug reaction associations of marketed drugs” (Nat Commun, 2023).
